Test results as given in ChEMBL document CHEMBL1201862, “PubChem BioAssay data set” (2004).
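Following 48 hours of exposure in 96-well plates, responses at five concentrations were used to interpolate endpoints linearly. Here, GI50 denotes the concentration required for 50% inhibition of growth.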 Active and inactive are the calls of the source. Cut-off read from the data, not from the text of the source: active = GI50 up to about 1.1 µM and inactive = higher.

Key:
Assay in all cases: DTP human tumour cell line panel, 48 h
[1] = tested on: MOLT-4
[2] = tested on: KM12
[3] = tested on: SK-MEL-5
[4] = tested on: SF-539
[5] = tested on: PC-3
[6] = tested on: HL-60
[7] = tested on: HOP-62
[8] = tested on: SF-268
[9] = tested on: UACC-62
[10] = tested on: HOP-92
[11] = tested on: DU-145
[12] = tested on: UO-31
[13] = tested on: HCC 2998
[14] = tested on: CCRF-CEM
[15] = tested on: SNB-19
[16] = tested on: SR
[17] = tested on: HCT-116
[18] = tested on: A549
[19] = tested on: TK-10
[20] = tested on: OVCAR-5

Compound | GI50 [1] | GI50 [2] | GI50 [3] | GI50 [4] | GI50 [5] | GI50 [6] | GI50 [7] | GI50 [8] | GI50 [9] | GI50 [10] | GI50 [11] | GI50 [12] | GI50 [13] | GI50 [14] | GI50 [15] | GI50 [16] | GI50 [17] | GI50 [18] | GI50 [19] | GI50 [20]
CC(=O)CC(O)(C(F)(F)Cl)C(F)(F)Cl | > 10 µM (inactive) | > 10 µM (inactive) | > 10 µM (inactive) | > 10 µM (inactive) | > 10 µM (inactive) | > 10 µM (inactive) | > 10 µM (inactive) | > 10 µM (inactive) | > 10 µM (inactive) | > 10 µM (inactive) | > 10 µM (inactive) | > 10 µM (inactive) | > 10 µM (inactive) | > 10 µM (inactive) | > 10 µM (inactive) | > 10 µM (inactive) | > 10 µM (inactive) | > 10 µM (inactive) | > 10 µM (inactive) | –
O=C1c2ccccc2-c2nc(-c3cccnc3)cc3c2c1nc1ccccc13 | 23.6 µM (inactive) | > 10 µM (inactive) | – | > 100 µM (inactive) | > 100 µM (inactive) | 21.2 µM (inactive) | > 100 µM (inactive) | > 100 µM (inactive) | 32.7 µM (inactive) | > 100 µM (inactive) | > 100 µM (inactive) | > 100 µM (inactive) | > 100 µM (inactive) | 26.5 µM (inactive) | > 100 µM (inactive) | 11.9 µM (inactive) | > 100 µM (inactive) | > 100 µM (inactive) | > 100 µM (inactive) | > 100 µM (inactive)
CC1CCCOc2ccc(cc2)/C=N\c2ccc(cc2)CCc2ccc(cc2)/N=C\c2ccc(cc2)OCCC1 | > 100 µM (inactive) | > 100 µM (inactive) | > 100 µM (inactive) | > 100 µM (inactive) | > 100 µM (inactive) | – | > 100 µM (inactive) | > 100 µM (inactive) | > 100 µM (inactive) | > 100 µM (inactive) | > 100 µM (inactive) | > 100 µM (inactive) | > 100 µM (inactive) | > 100 µM (inactive) | > 100 µM (inactive) | > 100 µM (inactive) | > 100 µM (inactive) | > 100 µM (inactive) | > 100 µM (inactive) | > 100 µM (inactive)
CN(C)c1ccc(C(=NN)c2ccc(N(C)C)cc2)cc1 | 0.361 µM (active) | 0.358 µM (active) | 0.447 µM (active) | – | 0.755 µM (active) | 0.322 µM (active) | 1.9 µM (inactive) | 8.91 µM (inactive) | 0.506 µM (active) | 14.5 µM (inactive) | 2.2 µM (inactive) | 6.49 µM (inactive) | 0.551 µM (active) | 0.394 µM (active) | 2.2 µM (inactive) | 0.231 µM (active) | 0.532 µM (active) | 1.3 µM (inactive) | 0.557 µM (active) | 4.95 µM (inactive)
CC(C)(C)OC(=O)n1c(Cl)c(C=O)c2ccccc21 | 51.8 µM (inactive) | 18.4 µM (inactive) | 43.5 µM (inactive) | 30.1 µM (inactive) | 22 µM (inactive) | 33.8 µM (inactive) | 20.6 µM (inactive) | 17.9 µM (inactive) | 19.3 µM (inactive) | 30.9 µM (inactive) | 19.3 µM (inactive) | 19.1 µM (inactive) | – | 27.9 µM (inactive) | 86.1 µM (inactive) | 31.2 µM (inactive) | – | 92.9 µM (inactive) | 25.6 µM (inactive) | 35.5 µM (inactive)
C=C(CN(C)C)C(=O)c1ccccc1[N+](=O)[O-] | – | 31.1 µM (inactive) | 18.8 µM (inactive) | 39.7 µM (inactive) | 17.4 µM (inactive) | 2.79 µM (inactive) | 38.7 µM (inactive) | 27.2 µM (inactive) | 17.9 µM (inactive) | 9.14 µM (inactive) | 23.6 µM (inactive) | 17.7 µM (inactive) | 29.9 µM (inactive) | – | > 56.4 µM (inactive) | 3.38 µM (inactive) | 17.3 µM (inactive) | > 57.8 µM (inactive) | 19.5 µM (inactive) | 15.8 µM (inactive)
Clc1ccc(COC(Cn2ccnc2)c2ccc(Cl)cc2Cl)cc1 (stereo unspecified) [ECONAZOLE] | 2.99 µM (inactive) | 14 µM (inactive) | – | 18.8 µM (inactive) | 10.8 µM (inactive) | 6.87 µM (inactive) | 12.9 µM (inactive) | 14.3 µM (inactive) | 12.1 µM (inactive) | 10.6 µM (inactive) | 16.5 µM (inactive) | 4.13 µM (inactive) | 14.6 µM (inactive) | 8.49 µM (inactive) | 14.3 µM (inactive) | 5.32 µM (inactive) | 8.71 µM (inactive) | 11.2 µM (inactive) | 14 µM (inactive) | 11.5 µM (inactive)
